Test results: patent US20180172712A1, “METHODS AND MATERIALS FOR ASSESSING HYDROGEN PEROXIDE ACCUMULATION IN CELLS” (Mayo Foundation for Medical Education and Research, priority 2015, published 2018)

Assays:
MM.1Sres cells = experiment: MTT assay in MM.1Sres cells; format: cell-based, human
Text: (§1) The data were normalized to the DMSO-treated group.

IgL-λ mRNA = experiment: Real-time PCR for IgL-λ mRNA; format: cell-based, human; details: FIG. 8B; 10, 30, or 50 μM, 72 hours
Procedure: (§2) Total RNA from HMCLs treated with lenalidomide was isolated using the Qiagen RNeasy mini kit. RNA (1 μg) was used for cDNA synthesis using iScript Reverse Transcription Supermix (Bio-Rad). Real-time polymerase chain reaction (PCR) was performed using the SYBR green method. The following primers were used for amplification: […]
(§3) The fold change of the mRNA expression was calculated from the difference between treated and untreated cells, after normalizing to an endogenous control (β-actin). Primers encompassing the spliced sequences in XBP1 mRNA were used for PCR amplification, and products were separated by electrophoresis through a 2.5% agarose gel and visualized by ethidium bromide staining. All reactions were conducted in triplicate.

MM.1S cells [1] = experiment: Intracellular ROS by DCFDA flow cytometry; format: cell-based, human; details: MM.1S cells pretreated with DCFDA 30 minutes; lenalidomide 10 μM vs vehicle
Procedure: Post-treatment reactive oxygen species (ROS) levels were determined using the cell-permeable fluorogenic probe DCFDA (Invitrogen Biosciences). Briefly, million cells per 2 mL (2 million cells in 4 mL medium) were cultured overnight. DCFDA (50 μM) was added to suspended cells and incubated for 30 minutes in the dark. Cells were collected and washed once with phosphate-buffered saline (PBS) and split into 2 FACS tubes. […] Cells were analyzed using a FACSCalibur system (Becton and Dickinson), with excitation and emission spectra set at 488 and 530 nm, respectively. CellQuest software was used to calculate H2O2 production by measuring the increase in mean fluorescence.

[2] = tested on: OPM2-NT and OPM2-shCRBN cells; experiment: MTT assay in OPM2-NT and OPM2-shCRBN cells; format: cell-based, human; details: OPM2-NT vs OPM2-shCRBN, increasing concentrations, 3 days
Text: as §1

IgL-λ dimers [3] = experiment: IgL dimerization immunoblot under nonreducing conditions in MM.1S cells; format: cell-based, human; details: 3 hours, lenalidomide 10 μM or H2O2 25 μM
Text: (§4) Proteins were transferred to polyvinylidene fluoride membranes (Bio-Rad).

KMS11 cells = experiment: MTT assay in KMS11 cells; format: cell-based, human; details: KMS11, 3 days
Text: as §1

[4] = tested on: ER stress markers in OPM2-NT and OPM2-shCRBN cells; experiment: ER stress immunoblot in OPM2-NT and OPM2-shCRBN cells; format: cell-based, human
Text: as §4

Bip = Bip immunoblot in other isogenic HMCLs (MM.1S/MM.1Sres, KMS18-NT/KMS18-shCRBN); format: cell-based, human; details: CRBN-positive vs CRBN-negative cells, 3 days
Text: as §4

XBP-1 mRNA = XBP-1 mRNA splicing by PCR; format: cell-based, human; details: lenalidomide 10 μM, 3 days
Procedure: as §2, §3

IgL-λ dimers [5] = experiment: IgL dimerization immunoblot in MM.1S and MM.1Sres cells; format: cell-based, human; details: MM.1S and MM.1Sres treated for 3 days
Text: as §4

MM.1S cells [6] = experiment: MTT assay in MM.1S cells; format: cell-based, human; details: 3 days
Text: as §1

JJN3 cells = experiment: MTT assay in JJN3 cells; format: cell-based, human; details: JJN3, 3 days
Text: as §1

RPMI-8226 cells = experiment: MTT assay in RPMI-8226 cells; format: cell-based, human; details: RPMI-8226, 3 days
Text: as §1

[7] = tested on: intracellular peroxidases in HMCLs; experiment: Intra-cellular peroxidase activity by Amplex Red in HMCLs; format: cell-based, human; details: different myeloma cell lines; thalidomide 20 μM, lenalidomide 20 μM, pomalidomide 10 μM; 40 to 60 minutes
Procedure: (§5) After 30 minutes, plates were read for fluorescence at 530 nm excitation and 590 nm emission with plate reader (Biotek Cytation3). For determining intra-cellular peroxidase activity by Amplex Red, cells were washed and mixed with Amplex Red reagent (50 μM) in HBSS buffer and plated 100,000 cells per well into 96 well plate, four wells for each condition. […] The DMSO control included H2O2 (100 μM). […] After specific time periods, the plates were read for fluorescence intensity using plate reader.

Horseradish peroxidase = biological target: T1, Horseradish peroxidase (Armoracia rusticana, UniProt P00433); experiment: HRP/Amplex Red in-vitro assay; format: biochemical; details: 10 μM drug, 5 μM H2O2, 30 minutes
T1 sequence (P00433 31-338 limits assumed): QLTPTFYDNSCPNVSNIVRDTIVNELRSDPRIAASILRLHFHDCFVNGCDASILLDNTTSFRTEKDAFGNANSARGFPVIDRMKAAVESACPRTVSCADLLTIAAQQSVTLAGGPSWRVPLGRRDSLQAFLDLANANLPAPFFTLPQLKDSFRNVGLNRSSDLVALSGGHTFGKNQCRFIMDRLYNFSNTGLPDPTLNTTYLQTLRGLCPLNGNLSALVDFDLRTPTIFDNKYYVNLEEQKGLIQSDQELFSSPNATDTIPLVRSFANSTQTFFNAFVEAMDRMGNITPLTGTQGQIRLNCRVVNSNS
Procedure: as §5

IgL-λ = IgL-λ secretion and intracellular level (immunoblot, ELISA) in OPM2-NT and OPM2-shCRBN cells; format: cell-based, human
Text: as §4

## Nc1cccc2c1CN(C1CCC(=O)NC1=O)C2=O (stereo not drawn) [lenalidomide]
MM.1Sres cells
  sensitivity of cell line (MTT): resistant
IgL-λ mRNA
  IgL-λ mRNA expression: unchanged
MM.1S cells [1]
  intracellular H2O2 (DCF fluorescence by FACS): increasing intracellular H2O2
[2]
  CRBN dependence of cytotoxicity (MTT): CRBN dependent
IgL-λ dimers [3]
  formation of IgL-λ dimers: increased formation of IgL-λ dimers
KMS11 cells
  sensitivity of cell line (MTT): sensitive
[4]; 3 days, increasing concentrations (10, 30, or 50 μM)
  ER stress response: an ER stress response occurred in OPM2-NT cells, but not in CRBN-knockdown cells
[4]; CRBN-positive cells, 3 days
  GRP78/BiP protein: accumulated
  IRE1α protein level: markedly decreased
  p53 protein levels: decreased
[4]; CRBN-positive lenalidomide-sensitive cells, 6 days
  p53 and PARP levels: complete degradation of p53 and PARP proteins
Bip
  Bip protein: accumulation of Bip protein in CRBN-positive cells, but not in CRBN-negative cells
XBP-1 mRNA
  mRNA splicing of XBP-1: more evident in OPM2-NT cells than CRBN-knockdown cells
IgL-λ dimers [5]
  IgL-λ dimers: IgL-λ dimers were observed only in MM.1S
MM.1S cells [6]
  sensitivity of cell line (MTT): hypersensitive
JJN3 cells
  sensitivity of cell line (MTT): resistant
RPMI-8226 cells
  sensitivity of cell line (MTT): resistant
[7]
  intracellular H2O2 decomposition mediated by peroxidases: inhibit intracellular H2O2 decomposition
Horseradish peroxidase
  decomposition of H2O2 by horseradish peroxidase (Amplex Red to resorufin): inhibited
IgL-λ; FIG. 8C, 72 hours
  total intracellular IgL protein: increased total intracellular IgL protein
IgL-λ; FIG. 8D-E
  secretion of IgG-λ / IgL-λ: decreased secretion
